The values that follow come from PubChem BioAssay (NCI).

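These data come from cells grown in 96-well plates and exposed to compound for 48 hours at five concentrations. The concentration for full growth arrest is given as TGI.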

Among the test systems are SNB-19 CNS; SF-539 CNS; PC-3 prostate; UO-31 renal; MDA-MB-231 breast; HOP-62 NSCLC; IGROV1 ovarian; MDA-N; NCI/ADR-RES ovarian; K-562 leukemia; HS 578T breast; HCT-116 colon; SK-MEL-2 melanoma; MOLT-4 leukemia; HCC-2998 colon; UACC-62 melanoma; UACC-257 melanoma; SN12C renal; SK-MEL-28 melanoma; BT-549 breast.
Test in all cases: growth of human tumour cells (NCI), 48 h

Regarding `Nc1nc(Nc2ccccc2)sc1C(=O)c1cccs1`, the TGI with SNB-19 CNS is 46.5 µM; in the assay on SF-539 CNS it was 25.5 µM; in the assay with PC-3 prostate it was 41.9 µM; in the assay with UO-31 renal, 36.2 µM; with MDA-MB-231 breast it was 68.6 µM; in the assay on HOP-62 NSCLC it was over 65.5 µM. Moreover, the TGI in the assay on IGROV1 ovarian turned out to be 36.3 µM; with MDA-N, 46.4 µM; in the assay with NCI/ADR-RES ovarian, 82 µM; with K-562 leukemia, 55.7 µM; in the assay on HS 578T breast, 43.3 µM; in the assay on HCT-116 colon, 18.2 µM. Moreover, the TGI amounted to 29.6 µM in the assay with SK-MEL-2 melanoma; 43.9 µM in the assay on MOLT-4 leukemia; 32.6 µM with HCC-2998 colon; 31 µM in the assay with UACC-62 melanoma; 32.5 µM in the assay on UACC-257 melanoma; 38.3 µM with SN12C renal. Also, the TGI in the assay on SK-MEL-28 melanoma is over 62.4 µM; with BT-549 breast, 35.7 µM.

With `Cc1ccc2[nH]c3c(c2c1)C1CCC(C(C)(C)C)CC1C1C(=O)N(c2ccc4c(c2)OCO4)C(=O)C31` (stereo not given), the TGI with SNB-19 CNS amounted to 7.97 µM; in the assay on SF-539 CNS, 2.74 µM; in the assay with PC-3 prostate it was 9.17 µM; in the assay with UO-31 renal it was 7.28 µM; in the assay on MDA-MB-231 breast, 5.11 µM; with HOP-62 NSCLC it was 4.24 µM. Moreover, the TGI in the assay on IGROV1 ovarian came out at 6.68 µM; with MDA-N, 17.6 µM; in the assay with NCI/ADR-RES ovarian, 10.2 µM; with K-562 leukemia, 9.62 µM; with HS 578T breast, 3.53 µM; in the assay with HCT-116 colon it was 6.36 µM. For the same compound, the TGI in the assay with SK-MEL-2 melanoma was found to be 19.3 µM; in the assay on MOLT-4 leukemia, 4.25 µM; with HCC-2998 colon it was 5.84 µM; with UACC-62 melanoma it was 22.9 µM; in the assay with UACC-257 melanoma, 23.7 µM; in the assay with SN12C renal it was 4.96 µM. The values for the TGI with SK-MEL-28 melanoma and with BT-549 breast were 17.9 µM and 20.6 µM, respectively.
